The source of these data is ChEMBL document CHEMBL2169765, “Structural basis for the accommodation of bis- and tris-aromatic derivatives in vitamin D nuclear receptor” (J Med Chem, 2012).

Holding throughout (type): cell-based
Assay [1] has as its target T1, Vitamin D3 receptor (Homo sapiens, UniProt P11473).
T1 sequence (P11473 whole entry): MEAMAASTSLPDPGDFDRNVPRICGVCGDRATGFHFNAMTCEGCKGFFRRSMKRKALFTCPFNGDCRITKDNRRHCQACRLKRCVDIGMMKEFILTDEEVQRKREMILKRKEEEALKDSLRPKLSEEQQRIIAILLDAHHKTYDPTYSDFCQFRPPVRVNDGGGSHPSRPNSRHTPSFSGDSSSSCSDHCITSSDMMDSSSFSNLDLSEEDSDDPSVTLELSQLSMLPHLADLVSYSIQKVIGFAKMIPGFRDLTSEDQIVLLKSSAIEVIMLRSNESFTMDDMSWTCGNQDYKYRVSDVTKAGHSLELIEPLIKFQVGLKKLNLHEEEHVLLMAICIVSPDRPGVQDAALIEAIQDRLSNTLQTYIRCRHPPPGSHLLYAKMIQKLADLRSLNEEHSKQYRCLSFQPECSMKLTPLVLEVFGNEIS
Briefly: Transactivation of full length human VDR expressed in human HeLa cells assessed as increase in CYP24 transcription after 18 hrs by luciferase reporter gene assay. (A reporter such as luciferase makes a cellular process visible.)

The target in assay [2] is T2, Vitamin D3 receptor (Homo sapiens) (UniProt P11473).
T2 sequence (whole entry): T1 sequence (P11473 whole entry)
Briefly: Ratio of calcitriol EC50 to compound EC50 for full length human VDR expressed in human HeLa cells.

Assay [3] addresses T1, Vitamin D3 receptor. The assay can be described thus: Transactivation of GAL4-fused VDR ligand binding domain expressed in human HeLa cells after 16 hrs by luciferase reporter gene assay.

`CCCc1cc(C(O)(CC)CC)ccc1-c1cc(CCc2ccc(CO)c(CO)c2)ccc1C`: on Vitamin D3 receptor [1], the EC50 amounted to 0.5 nM. For the same compound, in assay [2], the Ratio EC50 came to 4.
On to `CC/C(=C\C=C\C(O)(C(F)(F)F)C(F)(F)F)c1cccc(CCc2ccc(CO)c(CO)c2)c1`, for which the EC50 at Vitamin D3 receptor [1] was determined as 2.8 nM; at Vitamin D3 receptor [3], 1.7 nM.
Turning to `CCCc1cc(C(O)(CC)CC)ccc1-c1cc(OCc2ccc(CO)c(CO)c2)ccc1CC`, on Vitamin D3 receptor [1], the EC50 stood at 2.2 nM.
Regarding `CC/C(=C\C=C\C(O)(C(F)(F)F)C(F)(F)F)c1cccc(OCc2ccc(CO)c(CO)c2)c1`, the midpoint of the response on Vitamin D3 receptor [3], the EC50, lay at 5 nM.
Regarding `CC/C(=C\C=C\C(O)(CC)CC)c1cccc(OCc2ccc(CO)c(CO)c2)c1`, the half-maximal effective concentration (EC50) on Vitamin D3 receptor [1] amounted to 49 nM.

By EC50 is commonly meant the concentration needed to bring the measured effect to its halfway point.
